Laboratory results as given in patent US20250326765A1, “PDE4B INHIBITOR AND USE THEREOF” (XIZANG HAISCO PHARMACEUTICAL CO., LTD., priority 2022, published 2025).
Like-named read-outs stand apart in the source and are kept apart here.

Experiments:
PDE4B2 = biological target: T1, PDE4B2 (Homo sapiens, UniProt Q07343); test: Effect of compounds on PDE4B2 activity (fluorescence polarization kit); type: biochemical
T1 construct: purchased BPS Bioscience 60343
Description: The effect of compounds on PDE4B2 activity was detected by a fluorescence polarization kit (BPS Bioscience, Catalog #60343). According to the instructions of the kit, FAM-Cyclic-3′,5′-AMP at a final concentration of […], 1 ng/well of PDE4B2 (PDE buffer was added to the negative control well), and a compound diluted in a gradient manner (PDE buffer containing 10% DMSO was added to the positive control well) were added to each well, fully mixed, and then reacted at room temperature for 1 h. The Binding Agent was diluted with the Binding Agent Diluent (cAMP) at a ratio of 1:100 for later use, the Binding Agent dilution was taken and added to the test plate at 50 μl/well and incubated at room temperature with slow shaking for 20 minutes. After the incubation was complete, Envision was used for FP detection, with Excitation at 480 nm and Emission at 535 nm. FP was usually represented by mP value.
[formula] • I∥ (S535): fluorescence intensity in parallel direction • I⊥ (P535): fluorescence intensity in perpendicular direction • G: G factor=1
(§1) [formula] • mP(sample): mP of the test compound in a reaction well • mP(negative control): mP in the negative control well • mP(positive control): mP in the positive control well
(§2) According to the calculated inhibition rate at each concentration, the IC50 value of each compound was calculated by GraphPad Prism 8 software.

PDE4D2 = biological target: T2, PDE4D2 (Homo sapiens, UniProt Q08499); test: Effect of compounds on PDE4D2 activity (fluorescence polarization kit); type: biochemical; settings: class symbols
T2 construct: purchased BPS Bioscience 60345
T2 sequence (Q08499 303-809): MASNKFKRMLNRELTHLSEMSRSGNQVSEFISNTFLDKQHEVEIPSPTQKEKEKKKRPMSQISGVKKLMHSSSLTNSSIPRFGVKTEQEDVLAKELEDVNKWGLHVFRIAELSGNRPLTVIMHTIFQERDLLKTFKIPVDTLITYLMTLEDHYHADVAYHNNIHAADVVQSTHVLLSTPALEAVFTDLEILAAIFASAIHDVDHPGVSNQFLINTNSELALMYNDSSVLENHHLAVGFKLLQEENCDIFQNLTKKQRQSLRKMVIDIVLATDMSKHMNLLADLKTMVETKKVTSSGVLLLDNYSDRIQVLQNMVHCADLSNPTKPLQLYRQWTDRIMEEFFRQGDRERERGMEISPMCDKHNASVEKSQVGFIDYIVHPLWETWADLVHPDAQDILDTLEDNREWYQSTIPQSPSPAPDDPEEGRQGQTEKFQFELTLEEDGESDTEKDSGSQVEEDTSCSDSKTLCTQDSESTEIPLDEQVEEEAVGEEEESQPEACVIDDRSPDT
Description: The effect of compounds on PDE4D2 activity was detected by a fluorescence polarization kit (BPS Bioscience, Catalog #60345). During the reaction, 12.5 μL of 0.272 ng/well of an enzyme (final concentration: 0.068 ng/well) and 12.5 μL of the compound diluted in a gradient manner (DMSO concentration: 4%) were first pre-incubated at room temperature for 15 minutes, the same volume of the enzyme at the same concentration and 12.5 μL of PDE buffer containing 4% DMSO were added to the positive control well, and 25 μL of PDE buffer containing 2% DMSO was added to the negative control well. After completion, 25 μL of […] FAM-Cyclic-3′,5′-AMP (final concentration: […]) was added to each well, fully mixed, and then incubated at room temperature with slow shaking for 30 minutes. The Binding Agent was diluted with the Binding Agent Diluent (cAMP) at a ratio of 1:100 for later use, 100 μl/well of the Binding Agent dilution was taken and added to all wells of the test plate and incubated at room temperature with slow shaking for 1 hour.
After the incubation was complete, BMG LRBTECH microplate reader was used for FP detection, with Excitation at 485 nm and Emission at 520 nm. FP was usually represented by mP value.
[formula] • I∥ (S520): fluorescence intensity in parallel direction • I⊥ (P520): fluorescence intensity in perpendicular direction • G: G factor=1
as §1, §2

[1] = Pharmacokinetic test in mice; type: in vivo, ICR mice; settings: for AUC(0-t) / clearance / half-life / Vd: male, ICR, mouse, plasma; for Vd: read-out: Vdss
Description: 5.1 Experimental animals: Male ICR mice, 20-25 g, 6 mice/compound. Purchased from Chengdu Ddossy Experimental Animals Co., Ltd.
5.2 Experimental design: On the day of the experiment, 42 ICR mice were randomly grouped according to their body weights. The animals were fasted with water available for 12-14 h one day before administration and fed 4 h after administration.
Before and after administration, 0.06 mL of blood was taken from the orbit under isoflurane anesthesia and placed in an EDTAK2 centrifuge tube for centrifugation at 5000 rpm at 4-C for 10 min, followed by plasma collection. The blood collection time points for the intravenous group and intragastric group were both 0 m, 5 mi, 15 mi, 30 mi, 1 h, 2 h, 4 h, 6 h, 8 h, and 24 h. Before analysis and detection, all the samples were stored at −80° C., and the samples were subjected to quantitative analysis using LC-MS/MS.

[2] = Pharmacokinetic test in beagle dogs; type: in vivo
Description: 6.1 Experimental animals: male beagle dogs, about 8-11 kg, 6 beagle dogs/compound, purchased from Beijing Marshall Biotechnology Co., Ltd.
6.2 Experimental method: On the day of the experiment, 18 beagle dogs were randomly grouped according to their body weights. The animals were fasted with water available for 12-14 h one day before administration and fed 4 h after administration. Administration was carried out according to Table 8.
Before and after administration, 1 ml of blood was taken from the jugular vein or limb vein and placed in an EDTAK2 centrifuge tube. Centrifugation was carried out at 5000 rpm at 4° C. for 10 min, and plasma was collected. The blood collection time points for the intravenous group and intragastric group were both 0 min, 5 min, 15 min, 30 min, 1 h, 2 h, 4 h, 6 h, 8 h, 10 h, 12 h, 24 h, 48 h, and 72 h. Before analysis and detection, all the samples were stored at −80° C., and the samples were subjected to quantitative analysis using LC-MS/MS.

PDE4B1 = biological target: T3, PDE4B1 (Homo sapiens, UniProt Q07343); test: Effect of compounds on PDE4B1 activity (IMAP fluorescence polarization kit); type: biochemical; settings: class symbols
T3 construct: purchased BPS 60041
T3 sequence (Q07343 whole entry): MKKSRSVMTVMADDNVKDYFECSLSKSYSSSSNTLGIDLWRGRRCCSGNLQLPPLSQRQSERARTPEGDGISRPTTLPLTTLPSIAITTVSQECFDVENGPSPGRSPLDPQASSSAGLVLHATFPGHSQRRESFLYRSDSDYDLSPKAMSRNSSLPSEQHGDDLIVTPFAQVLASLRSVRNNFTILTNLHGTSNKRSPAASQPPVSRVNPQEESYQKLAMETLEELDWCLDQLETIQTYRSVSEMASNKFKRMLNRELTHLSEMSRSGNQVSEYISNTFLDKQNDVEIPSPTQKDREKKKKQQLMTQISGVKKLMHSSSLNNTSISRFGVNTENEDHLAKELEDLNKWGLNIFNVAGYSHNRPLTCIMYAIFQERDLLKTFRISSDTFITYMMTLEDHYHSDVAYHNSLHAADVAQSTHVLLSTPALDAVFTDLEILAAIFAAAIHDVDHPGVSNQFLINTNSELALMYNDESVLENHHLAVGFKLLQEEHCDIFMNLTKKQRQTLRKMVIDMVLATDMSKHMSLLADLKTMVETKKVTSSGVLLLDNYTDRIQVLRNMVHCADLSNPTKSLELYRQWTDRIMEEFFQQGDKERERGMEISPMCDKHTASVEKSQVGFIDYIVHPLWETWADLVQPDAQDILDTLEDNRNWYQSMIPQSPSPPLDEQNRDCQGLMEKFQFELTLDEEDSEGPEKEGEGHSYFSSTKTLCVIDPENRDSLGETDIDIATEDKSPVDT
Description: The IMAP Reaction Buffer containing 0.1% BSA (5×) in the kit was diluted into a 1-fold reaction buffer containing 1 mM DTT. 0.12 nM PDE4B1 (BPS, Cat #60041) was added to the 1-fold reaction buffer to form a 2-fold enzyme solution. 10 μL of the 2-fold enzyme solution was added to wells of a 384-well reaction plate. For the negative control well, 10 μL of the 1-fold reaction buffer was used instead of the enzyme solution. Centrifugation at 1000 rpm for 1 minute and incubation at room temperature for 15 minutes were carried out. 0.2 uM FAM-labeled cAMP (FAM-cAMP, Molecular Device, Cat #R7506) was added to the 1-fold reaction buffer to form a 2-fold substrate solution. 10 μL of the 2-fold substrate solution was added to each well of the 384-well reaction plate. Centrifugation at 1000 rpm for 1 minute was carried out. A reaction was carried out at room temperature for 20 minutes. IMAP Progressive Binding Buffer A (5×), IMAP Progressive Binding Buffer B (5×), and IMAP Progressive Binding Reagent (provided by IMAP FP IPP Explorer Kit) were prepared into a reaction stop solution according to the instructions for use. 60 μL of an […] reaction stop solution was added to each well of the 384-well reaction plate to stop the reaction, and the reaction product was centrifuged at 1000 rpm for 1 minute. Incubation at room temperature in the dark for 60 minutes was carried out. The mP values (Ex480/Em535 (s), Em535 (p)) were read by a microplate reader (Envision).
FP was usually represented by mP value. mP value for FP measurement=1000*(S−G*P)/(S+G*P) • S: fluorescence intensity in parallel direction • P: fluorescence intensity in perpendicular direction • G: G factor=1
as §1
According to the calculated inhibition rate at each concentration, the IC50 value of each compound was calculated by XLFit excel add-in version 5.4.0.8 software.
Y=Bottom+(Top−Bottom)/(1+(IC50/X)^HillSlope) Fitting formula: […]

[3] = Inhibition of LPS-induced TNF-α release from human peripheral blood mononuclear cells in vitro; type: cell-based; settings: PBMC, hPBMC, 100 ng/mL LPS, 4 h
Description: Normal human peripheral blood which was anticoagulated (citric acid anticoagulation) was collected, and hPBMCs were prepared by Ficoll-Paque PLUS (Cytiva, Cat #17144002, density 1.077 g/mL). The concentration of hPBMC cells was adjusted to 0.25×10^6 cells/mL with RPMI1640 medium and inoculated into a 96-well plate in an amount of 50000 cells per well. Subsequently, different concentrations of drugs were added for pre-incubation for 1 h (the DMSO final concentration was 0.1%, and the positive and negative control wells had the same volume of RPMI1640 containing 0.1% DMSO). After the pre-incubation was complete, 100 ng/mL LPS (SIGMA, L2630) was added to the compound and positive control wells, and the negative control well had the same volume of RPMI1640 containing 0.1% DMSO. Incubation was carried out for 4 h in an incubator at 37° C. and 5% CO2. The cell supernatant was collected, and the content of TNF-α in the supernatant sample was detected by human TNF-α Elisa quantitative test kit (Sino Biological, Cat #KIT10602). The IC50 value was calculated using GraphPad Prism software.

[4] = class symbols, read-out: PDE4B2 IC50
[5] = male, dog, iv, plasma, i.v. (1 mg/kg)
[6] = male, dog, po, plasma, i.g. (5 mg/kg)

T1 sequence (Q07343 1-564 isoform Q07343-2): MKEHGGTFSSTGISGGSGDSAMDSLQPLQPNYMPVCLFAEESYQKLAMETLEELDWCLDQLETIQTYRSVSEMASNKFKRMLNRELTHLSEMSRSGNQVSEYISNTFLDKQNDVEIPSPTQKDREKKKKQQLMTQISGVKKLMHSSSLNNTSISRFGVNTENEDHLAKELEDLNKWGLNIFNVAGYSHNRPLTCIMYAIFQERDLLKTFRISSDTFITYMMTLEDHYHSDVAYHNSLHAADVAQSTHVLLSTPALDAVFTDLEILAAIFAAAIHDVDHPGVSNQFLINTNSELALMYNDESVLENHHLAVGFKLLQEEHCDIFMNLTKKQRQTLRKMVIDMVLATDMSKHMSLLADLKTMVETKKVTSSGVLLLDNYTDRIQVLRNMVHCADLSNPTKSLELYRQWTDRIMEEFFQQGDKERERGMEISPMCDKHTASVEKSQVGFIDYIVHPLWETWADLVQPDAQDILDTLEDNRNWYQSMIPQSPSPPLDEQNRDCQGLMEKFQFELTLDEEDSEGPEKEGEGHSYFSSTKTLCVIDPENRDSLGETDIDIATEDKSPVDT

[O-][S@+]1CCc2nc(N3CCC=C(c4ccc(Cl)cc4)CC3)nc(NC3(CO)CCC3)c21 [Compound 5]
IC50 (PDE4B2; [4]): < 10 nM
IC50 (PDE4B2; values in text, read-out: IC50 against PDE4B2): 8.1 nM
IC50 (PDE4D2): < 10 nM
F ([1]; i.g. (10 mg/kg)): 91.9 ± 7.5%
AUC(0-t) ([1]; iv, i.v. (5 mg/kg)): 7400 ± 1110 ng·h/mL
clearance ([1]; iv, i.v. (5 mg/kg)): 5.71 ± 0.86 mL/min/kg
half-life ([1]; iv, i.v. (5 mg/kg)): 2.72 ± 0.23 h
Vd ([1]; iv, i.v. (5 mg/kg)): 1.31 ± 0.12 L/kg
AUC(0-t) ([1]; po, i.g. (10 mg/kg)): 27200 ± 2230 ng·h/mL
half-life ([1]; po, i.g. (10 mg/kg)): 3.42 ± 0.16 h
F ([2]; i.g. (5 mg/kg)): ≥98%
AUC(0-t) [2, 5]: 1200 ± 210 ng·h/mL
clearance [2, 5]: 13.8 ± 2.3 mL/min/kg
half-life [2, 5]: 3.91 ± 0.037 h
Vd ([2]; male, dog, iv, plasma, i.v. (1 mg/kg), read-out: Vdss): 4.16 ± 0.76 L/kg
AUC(0-t) [2, 6]: 5020 ± 1700 ng·h/mL
half-life [2, 6]: 6.32 ± 2.1 h

[O-][S+]1CCc2nc(N3CC4C(C3)C4c3ccc(Cl)cc3)nc(NC3(CO)CCC3)c21 (stereo not drawn) [Compound 20]
IC50 (PDE4B2; [4]): 10 to 50 nM
IC50 (PDE4B1): < 10 nM
IC50 (PDE4D2): < 10 nM

[O-][S@+]1CCc2nc(N3C[C@H]4CC[C@@H](C3)[C@@H]4c3ccc(Cl)cc3)nc(NC3(CO)CCC3)c21 [Compound 22]
IC50 (PDE4B2; [4]): 10 to 50 nM
IC50 (PDE4B1): 10 to 50 nM
IC50 (PDE4D2): 10 to 50 nM

[O-][S@+]1CCc2nc(N3C[C@H]4CN(c5ncc(Cl)cn5)C[C@H]4C3)nc(NC3(CO)CCC3)c21 [Compound 25]
IC50 (PDE4B2; [4]): 10 to 50 nM
IC50 (PDE4B1): < 10 nM
IC50 (PDE4D2): < 10 nM

[O-][S@+]1CCc2nc(N3CC=C(c4ccc5c(c4)CC5)CC3)nc(NC3(CO)CCC3)c21 [Compound 26]
IC50 (PDE4B1): < 10 nM
IC50 (PDE4D2): < 10 nM

[O-][S@+]1CCc2nc(N3CCC=C(c4ccc5c(c4)CC5)CC3)nc(NC3(CO)CCC3)c21 [Compound 27]
IC50 (PDE4B1): < 10 nM
IC50 (PDE4D2): < 10 nM

[O-][S@+]1CCc2nc(N3CC=C(c4ncc(Cl)cn4)CC3)nc(NC3(CO)CCC3)c21 [Compound 28]
IC50 (PDE4B1): < 10 nM
IC50 (PDE4D2): < 10 nM
F ([1]; i.g. (10 mg/kg)): 71.4 ± 11%
AUC(0-t) ([1]; iv, i.v. (5 mg/kg)): 9210 ± 2070 ng·h/mL
clearance ([1]; iv, i.v. (5 mg/kg)): 4.67 ± 1.2 mL/min/kg
half-life ([1]; iv, i.v. (5 mg/kg)): 3.59 ± 0.19 h
Vd ([1]; iv, i.v. (5 mg/kg)): 1.31 ± 0.28 L/kg
AUC(0-t) ([1]; po, i.g. (10 mg/kg)): 26300 ± 4150 ng·h/mL
half-life ([1]; po, i.g. (10 mg/kg)): 7.04 ± 1.8 h

[O-][S+]1CCc2nc(N3CCC4=C(COc5cc(Cl)ccc54)C3)nc(NC3(CO)CCC3)c21 (stereo not drawn) [Compound 29]
IC50 (PDE4B1): < 10 nM
IC50 (PDE4D2): < 10 nM

[O-][S+]1CCc2nc(N3CC=C(c4c(F)cc(Cl)cc4F)CC3)nc(NC3(CO)CCC3)c21 (stereo not drawn) [Compound 35]
IC50 (PDE4B1): < 10 nM
IC50 (PDE4D2): < 10 nM

CC1=C(c2ccc(Cl)cc2)CCN(c2nc3c(c(NC4(CO)CCC4)n2)[S+]([O-])CC3)C1 (stereo not drawn) [Compound 36]
IC50 (PDE4B1): < 10 nM

[O-][S@+]1CCc2nc(N3CC=C(c4ccc(Cl)c5c4CC5)CC3)nc(NC3(CO)CCC3)c21 [Compound 83]
IC50 (PDE4B2; [4]): < 10 nM
IC50 (PDE4D2): < 10 nM
IC50 ([3]; class symbols, read-out: Re IC50 (nM) (relative IC50), TNF-α induced by LPS): < 10 nM
Emax ([3]; read-out: Max inhibition (%)): 77.7%
